Source: patent US8507533B2, “Glucagon receptor modulators” (Pfizer Inc., priority 2011, dated 2013)

Legend:
human glucagon receptor [1] = molecular target: T1, human glucagon receptor (Homo sapiens (Human), UniProt P47871); assay: Glucagon cAMP Assay (Cisbio cAMP detection); type: cell-based; conditions: CHOK1 cells stably transfected with the human glucagon receptor; block of glucagon induced cAMP production; Kb by modified Cheng-Prusoff equation
human glucagon receptor [2] = molecular target: T1, human glucagon receptor; assay: Human Glucagon SPA Assay (binding of [125I]Glucagon-Cex); conditions: membrane from chem-1 cells stably transfected with the human glucagon receptor, Ki by Cheng-Prusoff equation

T1 sequence (P47871 26-477): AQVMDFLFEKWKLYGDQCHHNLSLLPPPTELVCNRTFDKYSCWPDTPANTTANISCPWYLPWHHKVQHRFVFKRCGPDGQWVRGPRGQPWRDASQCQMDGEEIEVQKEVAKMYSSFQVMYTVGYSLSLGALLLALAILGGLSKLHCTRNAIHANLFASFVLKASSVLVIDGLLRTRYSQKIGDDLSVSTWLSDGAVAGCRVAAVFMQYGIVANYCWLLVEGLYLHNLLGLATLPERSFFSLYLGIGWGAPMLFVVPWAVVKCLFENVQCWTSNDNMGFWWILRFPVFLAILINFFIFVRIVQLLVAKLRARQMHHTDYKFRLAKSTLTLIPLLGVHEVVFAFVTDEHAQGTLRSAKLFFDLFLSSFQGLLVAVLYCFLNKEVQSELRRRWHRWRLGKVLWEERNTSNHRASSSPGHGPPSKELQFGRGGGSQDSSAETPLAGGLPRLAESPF

Kb (human glucagon receptor [1])	Ki (human glucagon receptor [2])	Structure (SMILES)
313 nM	94.9 nM	CC1(C)CC(C(Oc2cnc(-n3cc(C(F)(F)F)cn3)nc2)c2ccc(C(=O)NCCC(=O)O)cc2)C1 (single isomer, unassigned; isomer 1) [Example 155, 3-(4-((3,3-dimethylcyclobutyl)(2-(4-(trifluoromethyl)-1H-pyrazol-1-yl)pyrimidin-5-yloxy)methyl)benzamido)propanoic acid, Isomer 1]
246 nM	251 nM	CC1(C)CC(C(Oc2cnc(-n3cc(C(F)(F)F)cn3)nc2)c2ccc(C(=O)NCCC(=O)O)cc2)C1 (single isomer, unassigned; isomer 1) [Example 156, 3-(4-((3,3-dimethylcyclobutyl)(2-(4-(trifluoromethyl)-1H-pyrazol-1-yl)pyrimidin-5-yloxy)methyl)benzamido)propanoic acid, Isomer 1]
18.6 nM	5.55 nM	CC1(C)CC(C(Nc2cnc(-n3cc(C(F)(F)F)cn3)nc2)c2ccc(C(=O)NCCC(=O)O)cc2)C1 (single isomer, unassigned; isomer 1) [Example 157, 3-(4-((3,3-dimethylcyclobutyl)(2-(4-(trifluoromethyl)-1H-pyrazol-1-yl)pyrimidin-5-ylamino)methyl)benzamido)propanoic acid, Isomer 1]
111 nM	29 nM	CCCC(Nc1ccc(-n2cc(-c3ccccc3)cn2)nc1)c1ccc(C(=O)NCCC(=O)O)cc1 (single isomer, unassigned; isomer 1) [Example 160, 3-(4-(1-(6-(4-phenyl-1H-pyrazol-1-yl)pyridine-3-ylamino)butyl)benzamido)propanoic acid, Isomer 1]
94.8 nM	91.5 nM	CCCC(Nc1ccc(-n2cc(CC)c(C)n2)nc1)c1ccc(C(=O)NCCC(=O)O)cc1 (single isomer, unassigned; isomer 1) [Example 166, 3-(4-(1-(6-(4-ethyl-3-methyl-1H-pyrazol-1-yl)pyridin-3-ylamino)butyl)benzamido)propanoic acid, Isomer 1]
1300 nM	224 nM	Cc1cc(C(Nc2ccc(C(=O)NCCC(=O)O)cn2)C2CCCC2)cc(C)c1-n1cc(C(F)(F)F)cn1 (single isomer, unassigned; isomer 1) [Example 170, (3-(6-((cyclopentyl(3,5-dimethyl-4-(4-(trifluoromethyl)-1H-pyrazol-1-yl)phenyl)methyl)amino)nicotinamido)propanoic acid, Isomer 1]
59.9 nM	8.18 nM	O=C(O)CCNC(=O)c1ccc([C@H](CCC(F)(F)F)Nc2ccc(-n3cc(C(F)(F)F)cn3)nc2)cc1 (single isomer, unassigned; isomer 1) [Example 172, N-{4-[4,4,4-trifluoro-1-({6-[4-(trifluoromethyl)-1H-pyrazol-1-yl]pyridin-3-yl}amino)butyl]benzoyl}-beta-alanine, Isomer 1]
252 nM	57 nM	CC1(C)CC([C@H](Nc2ccc(-n3cc(C4CC4)cn3)nc2)c2ccc(C(=O)NCCC(=O)O)cc2)C1 (single isomer, unassigned; isomer 1) [Example 174, N-{-4-[{[6-(4-cyclopropyl-1H-pyrazol-1-yl)pyridin-3-yl]amino}(3,3-dimethylcyclobutyl)methyl]benzoyl}-beta-alanine, Isomer 1]
134 nM	22.1 nM	CC(C)(C)[C@H](Nc1ccc(-n2cc(C(F)(F)F)cn2)nc1)c1ccc(C(=O)NCCC(=O)O)cc1 (single isomer, unassigned; isomer 1) [Example 179, 3-(4-(2,2-dimethyl-1-((6-(4-(trifluoromethyl)-1H-pyrazol-1-yl)pyridin-3-yl)amino)propyl)benzamido)propanoic acid, Isomer 1]
424 nM	156 nM	CC(C)(C)[C@H](Nc1ccc(-n2cnc(C(F)(F)F)c2)nc1)c1ccc(C(=O)NCCC(=O)O)cc1 (single isomer, unassigned; isomer 1) [Example 182, 3-(4-(2,2-dimethyl-1-((6-(4-(trifluoromethyl)-1H-imidazol-1-yl)pyridin-3-yl)amino)propyl)benzamido)propanoic acid, Isomer 1]
11.7 nM	29.3 nM	Cc1nn(-c2ccc(N[C@H](c3ccc(C(=O)NCCC(=O)O)cc3)C3CCCC3)cn2)cc1Cl (single isomer, unassigned; isomer 1) [Example 191, 3-(4-((6-(4-chloro-3-methyl-1H-pyrazol-1-yl)pyridin-3-ylamino)(cyclopentyl)methyl)benzamido)propanoic acid, Isomer 1]
155 nM	41 nM	CC1(C)CC(C(Nc2cnc(-n3cc(C(F)(F)F)cn3)nc2)c2ccc(C(=O)NCCC(=O)O)cc2)C1 (single isomer, unassigned; isomer 2) [Example 158, 3-(4-((3,3-dimethylcyclobutyl)(2-(4-(trifluoromethyl)-1H-pyrazol-1-yl)pyrimidin-5-ylamino)methyl)benzamido)propanoic acid, Isomer 2]
9.49 nM	25.7 nM	CCCC(Nc1ccc(-n2cc(-c3ccccc3)cn2)nc1)c1ccc(C(=O)NCCC(=O)O)cc1 (single isomer, unassigned; isomer 2) [Example 161, 3-(4-(1-(6-(4-phenyl-1H-pyrazol-1-yl)pyridine-3-ylamino)butyl)benzamido)propanoic acid, Isomer 2]
1140 nM	414 nM	CCCC(Nc1ccc(-n2cc(CC)c(C)n2)nc1)c1ccc(C(=O)NCCC(=O)O)cc1 (single isomer, unassigned; isomer 2) [Example 167, 3-(4-(1-(6-(4-ethyl-3-methyl-1H-pyrazol-1-yl)pyridin-3-ylamino)butyl)benzamido)propanoic acid, Isomer 2]
150 nM	28 nM	Cc1cc(C(Nc2ccc(C(=O)NCCC(=O)O)cn2)C2CCCC2)cc(C)c1-n1cc(C(F)(F)F)cn1 (single isomer, unassigned; isomer 2) [Example 171, 3-(6-((cyclooentyl(3,5-dimethyl-4-(4-(trifluoromethyl)-1H-pyrazol-1-yl)phenyl)methyl)amino)nicotinamido)propanoic acid, Isomer 2]
641 nM	26.6 nM	O=C(O)CCNC(=O)c1ccc([C@H](CCC(F)(F)F)Nc2ccc(-n3cc(C(F)(F)F)cn3)nc2)cc1 (single isomer, unassigned; isomer 2) [Example 173, N-{4-[4,4,4-trifluoro-1-({6-[4-(trifluoromethyl)-1H-pyrazol-1-yl]pyridin-3-yl}amino)butyl]benzoyl}-beta-alanine, Isomer 2]
10.5 nM	28.7 nM	CC1(C)CC([C@H](Nc2ccc(-n3cc(C4CC4)cn3)nc2)c2ccc(C(=O)NCCC(=O)O)cc2)C1 (single isomer, unassigned; isomer 2) [Example 175, N-{-4-[{[6-(4-cyclopropyl-1H-pyrazol-1-yl)pyridin-3-yl]amino}(3,3-dimethylcyclobutyl)methyl]benzoyl}-beta-alanine, Isomer 2]
45 nM	10.3 nM	CC(C)(C)[C@H](Nc1ccc(-n2cc(C(F)(F)F)cn2)nc1)c1ccc(C(=O)NCCC(=O)O)cc1 (single isomer, unassigned; isomer 2) [Example 180, 3-(4-(2,2-dimethyl-1-((6-(4-(trifluoromethyl)-1H-pyrazol-1-yl)pyridin-3-yl)amino)propyl)benzamido)propanoic acid, Isomer 2]
154 nM	53.5 nM	CC(C)(C)[C@H](Nc1ccc(-n2cnc(C(F)(F)F)c2)nc1)c1ccc(C(=O)NCCC(=O)O)cc1 (single isomer, unassigned; isomer 2) [Example 183, 3-(4-(2,2-dimethyl-1-((6-(4-(trifluoromethyl)-1H-imidazol-1-yl)pyridin-3-yl)amino)propyl)benzamido)propanoic acid, Isomer 2]
88.5 nM	50.3 nM	Cc1nn(-c2ccc(N[C@H](c3ccc(C(=O)NCCC(=O)O)cc3)C3CCCC3)cn2)cc1Cl (single isomer, unassigned; isomer 2) [Example 192, 3-(4-((6-(4-chloro-3-methyl-1H-pyrazol-1-yl)pyridin-3-ylamino)(cyclopentyl)methyl)benzamido)propanoic acid, Isomer 2]
106 nM	88.4 nM	CC(C)c1cn(-c2ccc(NC(c3ccc(C(=O)NCCC(=O)O)cc3)C3CCCC3)cn2)cn1 (stereo not shown) [Example 123, 3-(4-(cyclopentyl(6-(4-isopropyl-1H-imidazol-1-yl)pyridin-3-ylamino)methyl)benzamido)propanoic acid]
144 nM	98.2 nM	CCCC(Oc1ccc(-n2cc3cccc(C)c3n2)cc1)c1ccc(C(=O)NCCC(=O)O)cc1 (stereo not shown) [Example 125, 3-(4-(1-(4-(7-methyl-2H-indazol-2-yl)phenoxy)butyl)benzamido)propanoic acid]
212 nM	161 nM	CCCC(Oc1ccc(-n2cc3ccc(C)cc3n2)cc1)c1ccc(C(=O)NCCC(=O)O)cc1 (stereo not shown) [Example 126, 3-(4-(1-(4-(6-methyl-2H-indazol-2-yl)phenoxy)butyl)benzamido)propanoic acid]
202 nM	316 nM	CCCC(Oc1ccc(-n2cc3c(C)cccc3n2)cc1)c1ccc(C(=O)NCCC(=O)O)cc1 (stereo not shown) [Example 127, 3-(4-(1-(4-(4-methyl-2H-indazol-2-yl)phenoxy)butyl)benzamido)propanoic acid]
268 nM	208 nM	CCCC(Oc1ccc(-n2cc3cc(C)ccc3n2)cc1)c1ccc(C(=O)NCCC(=O)O)cc1 (stereo not shown) [Example 128, 3-(4-(1-(4-(5-methyl-2H-indazol-2-yl)phenoxy)butyl)benzamido)propanoic acid]

Structure (SMILES)	Kb (human glucagon receptor [1])	Ki (human glucagon receptor [2])
CCCC(Oc1cc(C)c(-n2cc(Cl)cn2)c(C)c1)c1ccc(C(=O)NCCC(=O)O)cc1 (stereo not shown) [Example 130, (+\−)-3-(4-(1-(4-(4-chloro-1H-pyrazol-1-yl)-3,5-dimethylphenoxy)butyl)benzamido)propanoic acid]	195 nM	116 nM
